Holding throughout (test): NADH oxidation at […] nm, initial rates
Assay type in all cases: biochemical

The target in experiment [1] is T1, Hgdh (Acidaminococcus fermentans, UniProt D2RJU7, V11K/V11M/A206V/A214V/V312I, form not given).
T1 construct: full length, codon-optimized, expressed in E. coli BL21(DE3) from pET-28b, extra Ala after start Met, C-terminal thrombin site and His tag (kept), homodimer of 75 kDa
The settings on record: 0.25 mM NADH, 50 mM phosphate pH 8, 25 °C, apparent, residue 11 contradictory: V11K, A2 is the extra cloning Ala.

In experiment [2] the target is T2, Hgdh (Acidaminococcus fermentans, UniProt D2RJU7).
T2 construct: full length, codon-optimized, expressed in E. coli BL21(DE3) from pET-28b, extra Ala after start Met, C-terminal thrombin site and His tag (kept), homodimer of 75 kDa
T2 sequence (D2RJU7 whole entry): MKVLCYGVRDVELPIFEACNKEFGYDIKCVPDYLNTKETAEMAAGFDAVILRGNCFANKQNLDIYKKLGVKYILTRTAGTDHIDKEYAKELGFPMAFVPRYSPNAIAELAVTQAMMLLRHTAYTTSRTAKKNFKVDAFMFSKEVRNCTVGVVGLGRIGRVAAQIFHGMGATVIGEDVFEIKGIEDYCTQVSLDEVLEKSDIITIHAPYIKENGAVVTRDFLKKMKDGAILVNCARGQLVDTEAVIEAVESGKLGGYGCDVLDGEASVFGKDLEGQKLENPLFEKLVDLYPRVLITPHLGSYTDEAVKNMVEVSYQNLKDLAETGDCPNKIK
The settings on record: 0.25 mM NADH, 50 mM phosphate pH 8, 25 °C; apparent (Km of NADH not determined).

Experiment [3] concerns the target T3, Hgdh (Acidaminococcus fermentans, UniProt D2RJU7, V11K/V11M/A206V/A214V/E304K, form not given).
T3 construct: full length, codon-optimized, expressed in E. coli BL21(DE3) from pET-28b, extra Ala after start Met, C-terminal thrombin site and His tag (kept), homodimer of 75 kDa
The following applies: 0.25 mM NADH, 50 mM phosphate pH 8, 25 °C, apparent, residue 11 contradictory: V11K, A2 is the extra cloning Ala.

The target in experiment [4] is T4, Hgdh (Acidaminococcus fermentans, UniProt D2RJU7, V11K/V11M/A206V/A214D/K307I, form not given).
T4 construct: full length, codon-optimized, expressed in E. coli BL21(DE3) from pET-28b, extra Ala after start Met, C-terminal thrombin site and His tag (kept), homodimer of 75 kDa
T4 sequence (D2RJU7 whole entry, stated change not applied): as the sequence (D2RJU7 whole entry) above
The settings on record: 0.25 mM NADH, 50 mM phosphate pH 8, 25 °C, apparent, residue 11 contradictory: V11K, A2 is the extra cloning Ala.

T3 sequence (D2RJU7 whole entry, stated change not applied): as the sequence (D2RJU7 whole entry) above
T1 sequence (D2RJU7 whole entry, stated change not applied): as the sequence (D2RJU7 whole entry) above

Take `O=C(O)CCCC(=O)C(=O)O` [2-oxoadipate]: the Km at Hgdh [1] amounted to 9.72 ± 0.67 mM; on Hgdh [2], 2.96 ± 0.24 mM; on Hgdh [3], 4.18 ± 0.2 mM; on Hgdh [4], 3.05 ± 0.24 mM.

As usually defined, the Km is the concentration of substrate that gives half-maximal velocity.

The values are drawn from PMC9396657, “Directed Evolution of (R)-2-Hydroxyglutarate Dehydrogenase Improves 2-Oxoadipate Reduction by 2 Orders of Magnitude” (ACS Synthetic Biology, 2022).
